Results published in PubChem BioAssay (NCI).
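Growth conditions: 96-well plates. Treatment: test compound, 48 hours, 5 concentrations. Analysis: linear interpolation between bracketing concentrations; unreached endpoints set to highest concentration. At the TGI there is no net growth.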

How the values were obtained:
Assay in all cases: NCI tumour cell line growth inhibition, 48 h
[1] = system: HT29 colon
[2] = system: SF-295 CNS
[3] = system: HOP-18 NSCLC
[4] = system: SF-539 CNS
[5] = system: KM12 colon
[6] = system: SF-268 CNS
[7] = system: IGROV1 ovarian
[8] = system: XF 498 CNS
[9] = system: OVCAR-5 ovarian
[10] = system: SN12C renal
[11] = system: UO-31 renal
[12] = system: EKVX NSCLC
[13] = system: SR leukemia
[14] = system: CCRF-CEM leukemia
[15] = system: SK-MEL-5 melanoma
[16] = system: HOP-62 NSCLC
[17] = system: U251 CNS
[18] = system: NCI-H23 lung
[19] = system: SW-620 colon
[20] = system: HCT-116 colon
[21] = system: DMS 114 small cell lung
[22] = system: SK-MEL-2 melanoma
[23] = system: OVCAR-4 ovarian
[24] = system: M14 melanoma
[25] = system: K-562 leukemia
[26] = system: TK-10 renal
[27] = system: LOX IMVI melanoma
[28] = system: ACHN renal
[29] = system: HCT-15 colon
[30] = system: SNB-75 CNS
[31] = system: UACC-62 melanoma
[32] = system: UACC-257 melanoma
[33] = system: DLD-1 colon
[34] = system: LXFL 529 NSCLC
[35] = system: SK-OV-3 ovarian
[36] = system: HCC-2998 colon
[37] = system: NCI-H522 lung
[38] = system: RXF-631 renal
[39] = system: MALME-3M melanoma
[40] = system: A549 NSCLC
[41] = system: RPMI-8226 leukemia
[42] = system: SK-MEL-28 melanoma
[43] = system: OVCAR-3 ovarian
[44] = system: A498 renal
[45] = system: SNB-19 CNS
[46] = system: OVCAR-8 ovarian
[47] = system: KM20L2 colon
[48] = system: COLO 205 colon
[49] = system: RXF 393 renal
[50] = system: CAKI-1 renal
[51] = system: DMS 273 small cell lung
[52] = system: NCI-H226 lung
[53] = system: HL-60(TB) leukemia
[54] = system: HOP-92 NSCLC
[55] = system: SNB-78 CNS
[56] = system: 786-0 renal
[57] = system: M19-MEL melanoma
[58] = system: NCI-H460 lung
[59] = system: MOLT-4 leukemia

## OCC(O)COc1ccc(Br)cc1 (stereo not drawn)
[1]
  TGI: > 100 µM
[2]
  TGI: > 100 µM
[3]
  TGI: > 100 µM
[4]
  TGI: > 100 µM
[5]
  TGI: > 100 µM
[6]
  TGI: > 100 µM
[7]
  TGI: > 100 µM
[8]
  TGI: > 100 µM
[9]
  TGI: > 100 µM
[10]
  TGI: > 100 µM
[11]
  TGI: > 100 µM
[12]
  TGI: > 100 µM
[13]
  TGI: > 100 µM
[14]
  TGI: > 100 µM
[15]
  TGI: > 100 µM
[16]
  TGI: > 100 µM
[17]
  TGI: > 100 µM
[18]
  TGI: > 100 µM
[19]
  TGI: > 100 µM
[20]
  TGI: > 100 µM
[21]
  TGI: > 100 µM
[22]
  TGI: > 100 µM
[23]
  TGI: > 100 µM
[24]
  TGI: > 100 µM
[25]
  TGI: > 100 µM
[26]
  TGI: > 100 µM
[27]
  TGI: > 100 µM
[28]
  TGI: > 100 µM
[29]
  TGI: > 100 µM
[30]
  TGI: > 100 µM
[31]
  TGI: > 100 µM
[32]
  TGI: > 100 µM
[33]
  TGI: > 100 µM
[34]
  TGI: > 100 µM
[35]
  TGI: > 100 µM
[36]
  TGI: > 100 µM
[37]
  TGI: > 100 µM
[38]
  TGI: > 100 µM
[39]
  TGI: > 100 µM
[40]
  TGI: > 100 µM
[41]
  TGI: > 100 µM
[42]
  TGI: > 100 µM
[43]
  TGI: > 100 µM
[44]
  TGI: > 100 µM
[45]
  TGI: > 100 µM
[46]
  TGI: > 100 µM
[47]
  TGI: > 100 µM
[48]
  TGI: > 100 µM
[49]
  TGI: > 100 µM
[50]
  TGI: > 100 µM
[51]
  TGI: > 100 µM
[52]
  TGI: > 100 µM
[53]
  TGI: > 100 µM
[54]
  TGI: > 100 µM

## CCc1nc2c(O)ccc(O)c2nc1C
[1]
  TGI: 34.9 µM
[2]
  TGI: 34.2 µM
[3]
  TGI: 35.3 µM
[4]
  TGI: 31.4 µM
[5]
  TGI: 30.8 µM
[6]
  TGI: 34.2 µM
[7]
  TGI: 33.1 µM
[8]
  TGI: 39.4 µM
[9]
  TGI: 33.5 µM
[55]
  TGI: 62.6 µM
[56]
  TGI: 26.3 µM
[10]
  TGI: 29.6 µM
[11]
  TGI: 33.5 µM
[12]
  TGI: 31.1 µM
[13]
  TGI: > 100 µM
[14]
  TGI: > 22.3 µM
[15]
  TGI: 31.2 µM
[16]
  TGI: 32.3 µM
[17]
  TGI: 30.2 µM
[18]
  TGI: 33.4 µM
[19]
  TGI: 4.1 µM
[20]
  TGI: 20.9 µM
[21]
  TGI: 36.1 µM
[22]
  TGI: 32.2 µM
[23]
  TGI: 17.3 µM
[24]
  TGI: 28.3 µM
[25]
  TGI: > 20.8 µM
[26]
  TGI: 37.1 µM
[27]
  TGI: 29.9 µM
[28]
  TGI: 23 µM
[29]
  TGI: 30.6 µM
[57]
  TGI: 19.4 µM
[30]
  TGI: 37.6 µM
[31]
  TGI: 27.5 µM
[58]
  TGI: 36.1 µM
[32]
  TGI: 31.4 µM
[33]
  TGI: 9.35 µM
[34]
  TGI: 15.8 µM
[35]
  TGI: 34.2 µM
[36]
  TGI: > 54.9 µM
[37]
  TGI: 6.47 µM
[38]
  TGI: 34.3 µM
[39]
  TGI: 29.3 µM
[40]
  TGI: 44.5 µM
[41]
  TGI: > 43.8 µM
[42]
  TGI: 34.4 µM
[43]
  TGI: 28.5 µM
[44]
  TGI: 35.2 µM
[45]
  TGI: 33.7 µM
[46]
  TGI: 23.8 µM
[47]
  TGI: 34 µM
[59]
  TGI: > 39.5 µM
[48]
  TGI: 7.26 µM
[49]
  TGI: 25.5 µM
[50]
  TGI: 33.2 µM
[51]
  TGI: 37 µM
[52]
  TGI: 29.9 µM
[53]
  TGI: > 21.7 µM
[54]
  TGI: 13.7 µM
